Biological target: T1, RuV macrodomain (macrodomain from rubella virus p150) (Rubella virus, UniProt G3M8F4)
T1 construct: gene NSP; macrodomain, p150 residues 805-983 (p150 is cut from nonstructural polyprotein p200); pET24a, C-terminal His6 tag, no tag cleavage described; E. coli BL21(DE3)
Test: isothermal titration calorimetry
Assay type: binding
Details: 20 mM HEPES pH 8, 0.15 M NaCl, 25 °C; 1:1 single-site; crystal structure by soaking with 2 mM ADP-ribose

Nc1ncnc2c1ncn2[C@@H]1O[C@H](COP(=O)(O)OP(=O)(O)OC[C@H]2OC(O)[C@H](O)[C@@H]2O)[C@@H](O)[C@H]1O (stereo partly shown) [ADP-ribose]
Kd: 58.1 ± 5.4 µM

Reference: PMC10878246, “Crystal structure and biochemical activity of the macrodomain from rubella virus p150” (Journal of virology, 2024)
